Laboratory results published in paper PMC12638514, “Identification of Novel β‐Lactam Derivatives as Proteasome Inhibitors for Antitumor Therapy” (Archiv Der Pharmazie, 2025).

Experiments:
MV‐4‐11 cells = assay: Cell proliferation inhibition assay (CCK8), MV‐4‐11; format: cell-based; details: Homo sapiens, MV4-11, 72 h, mean ± SD
Protocol: (§1) MV‐4‐11 cells (1 × 10^4 cells/well), RPMI‐8226 cells (8 × 10^3 cells/well), Molt4 cells (2 × 10^3 cells/well), RS4;11 cells (2 × 10^4 cells/well), and PBMC cells (2 × 10^4 cells/well) were seeded in 96‐well plates (Corning, 3599). Cells were treated with either 0.2% DMSO or fivefold dilutions of compounds from 10 mM stock solutions in DMSO (0.2% final concentration of DMSO) for 72 h. 10 μL of CCK8 reagent was added to each well, and the plates were incubated at 37°C for 3 h. Absorbance was measured at 450 nm and 650 nm using a Spectra Max Molecular Devices microplate reader. The final data were calibrated by OD450 nm‐OD650 nm.

RPMI‐8226 cells = assay: Cell proliferation inhibition assay (CCK8), RPMI‐8226; format: cell-based; details: Homo sapiens, 72 h, mean ± SD
Protocol: as §1

Molt4 cells = assay: Cell proliferation inhibition assay (CCK8), Molt4; format: cell-based; details: Homo sapiens, MOLT-4, 72 h, mean ± SD
Protocol: as §1

RS4;11 cells [1] = assay: Cell proliferation inhibition assay (CCK8), RS4;11; format: cell-based, human; details: mean ± SD
Protocol: as §1

[2] = biological target: proteasome β1 subunit (C‐L) (Homo sapiens, UniProt P28072+Q99436); assay: Proteasome caspase‐like (C‐L, β1) inhibition; format: biochemical; details: C‐L activity; mean ± SD of three independent experiments
Protocol: (§2) The human constitutive proteasome was generously provided by Dr. Jiang‐ping Wu (Notre‐Dame Hospital, Montreal, QC, Canada). […] The proteasome activity assay was performed in a total volume of 50 μL, with all samples diluted in Tris–HCl buffer (100 mM Tris–HCl, pH 8.0). […] 10 μL purified human proteasome (25 μg/mL) was added to 1 μL of each compound; after incubation for 15 min, the mixture was combined with 39 μL of the fluorogenic substrate. […] The IC50 values were calculated using the software GraphPad Prism4, employing the “sigmoidal dose–response (variable slope)” equation for curve fitting.

RS4;11 cells [3] = assay: Apoptosis assay by flow cytometry; format: cell-based, human; details: 1, 2 and 4 μM, 12 h
Protocol: (§3) Apoptosis was assessed using an Annexin V‐APC/7AAD apoptosis detection kit (GA1023‐KGA1026, Keygentec, Nanjing, China), followed by flow cytometry analysis. Briefly, cells were treated with the indicated drug concentration and durations or left untreated, then washed twice with PBS, stained with Annexin V‐APC/7AAD, and analyzed using flow cytometry (CytoFLEX flow cytometer, Beckman Coulter Inc.). RS4;11 cells were exposed to various concentrations of the compound or DMSO. Protein lysates were prepared using 4 × Laemmli sample buffer (161073, BIORAD, Richmond, USA). Protein samples were separated by SDS‐polyacrylamide gel electrophoresis (BIO‐RAD, Richmond, USA) and subsequently transferred to nitrocellulose (NC) membranes. Following a 90‐min blocking step with 5% skim milk at room temperature, the NC membranes were incubated with the primary antibody at 4 °C overnight, followed by three washes with TBST for 10 min each. The NC membranes were then incubated with secondary antibodies for 1.5 h at room temperature. Signals were detected by ECL (KF8001&KF8003, Affinity, China) using the BIO‐RAD ChemiDoc Touch Imaging System.

[4] = biological target: proteasome β2 subunit (T‐L) (Homo sapiens, UniProt P49720+Q99436); assay: Proteasome trypsin‐like (T‐L, β2) inhibition; format: biochemical; details: T‐L activity; mean ± SD of three independent experiments
Protocol: as §2

[5] = biological target: T1, human constitutive proteasome, β5 subunit (CT‐L) (Homo sapiens, UniProt P20618+P28074); assay: In vitro 20S proteasome chymotrypsin‐like (CT‐L, β5) inhibition assay; format: biochemical; details: CT‐L activity, substrate Suc‐LLVY‐AMC; mean ± SD of three independent experiments
T1 construct: gift of Dr. Jiang-ping Wu (Notre-Dame Hospital, Montreal)
Protocol: as §2

RS4;11 cells [6] = assay: Western blot of apoptosis‐related and ubiquitinated proteins; format: cell-based, human
Protocol: as §3

[7] = tested on: normal peripheral blood mononuclear cells (PBMC); assay: Cell proliferation inhibition assay (CCK8), PBMC; format: cell-based; details: 72 h, mean ± SD, read-out: IC50 PBMC‐3Day
Protocol: as §1

[8] = tested on: rabbit 20S proteasome β5 (CT‐L); parameters: method as in PMID 24452398, PMID 21946808; details: Figure 2; cited from earlier work

Row | Compound | IC50 (Molt4 cells) [nM] | IC50 (RS4;11 cells [1]; Homo sapiens, RS4-11, 72 h) [nM] | IC50 [2] [nM] | IC50 [4] [nM] | IC50 [5] [nM] | IC50 (MV‐4‐11 cells) [nM] | IC50 (RPMI‐8226 cells) [nM] | also measured
1 | CC(C)(C)CNC(=O)C[C@H](NC(=O)c1cnccn1)C(=O)N[C@@H](CCc1ccccc1)C(=O)N[C@H]1CN(c2ccc(F)cc2)C1=O [Compound 69] | > 10000 | 1520 ± 670 | > 10000 | > 10000 | 288 ± 57.2 | > 20000 | 10200 ± 760 | –
2 | C[C@H](NC(=O)c1cccnc1)C(=O)N[C@@H](CCc1ccccc1)C(=O)N[C@@H]1CN(c2ccc(F)cc2)C1=O [Compound 70] | – | – | – | – | > 10000 | – | – | –
3 | C[C@H](NC(=O)c1cnccn1)C(=O)N[C@@H](CCc1ccccc1)C(=O)N[C@@H]1CN(c2ccc(F)cc2)C1=O [Compound 71] | – | – | – | – | > 10000 | – | – | –
4 | O=C(N[C@@H](CCc1ccccc1)C(=O)N[C@@H](CCc1ccccc1)C(=O)N[C@@H]1CN(c2ccc(F)cc2)C1=O)c1cccnc1 [Compound 73] | – | – | – | – | > 10000 | – | – | –
5 | CC(C)[C@H](NC(=O)c1cccnc1)C(=O)N[C@@H](CCc1ccccc1)C(=O)N[C@@H]1CN(c2ccc(F)cc2)C1=O [Compound 72] | – | – | – | – | > 10000 | – | – | –
6 | CC(C)C[C@H](NC(=O)[C@H](Cc1ccccc1)NC(=O)c1cnccn1)B(O)O [Bortezomib, reference compound] | 13.3 ± 2.47 | 5.87 ± 0.93 | – | – | – | 5.15 ± 1.09 | 3.64 ± 0.52 | IC50 [7]: 1.57 ± 0.19 nM
7 | CC[C@H](C)[C@@H]1C(=O)O[C@H]1C(=O)NCCC[C@H](NC(=O)[C@H](C)N)C(=O)O [Belactosin C] | – | – | – | – | – | – | – | IC50 [8]: 210 nM
8 | CC(C)(C)CNC(=O)C[C@H](NC(=O)c1cnccn1)C(=O)N[C@@H](CCc1ccccc1)C(=O)N[C@@H]1CN(c2ccc(F)cc2)C1=O [Compound 68] | – | – | – | – | > 10000 | – | – | –

The next lines start with results.

Row | IC50 (Molt4 cells) [nM] | IC50 (RS4;11 cells [1]; Homo sapiens, RS4-11, 72 h) [nM] | IC50 [2] [nM] | IC50 [4] [nM] | IC50 [5] [nM] | Compound | IC50 (MV‐4‐11 cells) [nM] | IC50 (RPMI‐8226 cells) [nM] | also measured
9 | 3780 ± 270 | < 1000 | > 10000 | > 10000 | 142 ± 30.1 | COc1ccc(N2CC(NC(=O)C(CCc3ccccc3)NC(=O)C(CC(=O)NCC(C)(C)C)NC(=O)c3cccnc3)C2=O)cc1 [Compound 78, (S)‐N ^1‐[(S)‐1‐{[(R)‐1‐(4‐Methoxyphenyl)‐2‐oxoazetidin‐3‐yl]amino}‐1‐oxo‐4‐phenylbutan‐2‐yl]‐N ^4‐neopentyl‐2‐(nicotinamido)succinimide] | 2780 ± 410 | 2340 ± 340 | IC50 (RS4;11 cells [1]; 72 h): 500 ± 130 nM; induction of apoptosis in RS4;11 cells (RS4;11 cells [3]): triggered cell apoptosis in a dose‐dependent manner; activation and cleavage of caspase‐3 and PARP (RS4;11 cells [6]; RS4;11, 1, 2 and 4 μM, 8 h, western blot): detectable across all samples; accumulation of poly‐ubiquitinated proteins (RS4;11 cells [6]; RS4;11, western blot): significant accumulation of poly‐ubiquitinated proteins; IC50 [7]: 17200 ± 1930 nM
10 | > 10000 | 860 ± 240 | > 10000 | > 10000 | 72 ± 14.9 | Cc1ccc(N2C[C@@H](NC(=O)[C@H](CCc3ccccc3)NC(=O)[C@H](CC(=O)NCC(C)(C)C)NC(=O)c3cccnc3)C2=O)cc1 [Compound 76, (S)‐N ^4‐Neopentyl‐2‐(nicotinamido)‐N ^1‐[(S)‐1‐oxo‐1‐{[(R)‐2‐oxo‐1‐(p‐tolyl)azetidin‐3‐yl]amino}‐4‐phenylbutan‐2‐yl]succinamide] | > 20000 | 8050 ± 1170 | –
11 | – | – | > 10000 | > 10000 | 132 ± 14.8 | CN(C)c1ccc(N2C[C@@H](NC(=O)[C@H](CCc3ccccc3)NC(=O)[C@H](CC(=O)NCC(C)(C)C)NC(=O)c3cccnc3)C2=O)cc1 [Compound 77, (S)‐N ^1‐[(S)‐1‐{[(R)‐1‐[4‐(Dimethylamino)phenyl]‐2‐oxoazetidin‐3‐yl]amino}‐1‐oxo‐4‐phenylbutan‐2‐yl]‐N ^4‐neopentyl‐2‐(nicotinamido)succinamide] | – | – | –
12 | – | – | – | – | > 10000 | O=C(N[C@@H](Cc1ccccc1)C(=O)N[C@@H](CCc1ccccc1)C(=O)N[C@@H]1CN(c2ccc(F)cc2)C1=O)c1cccnc1 [Compound 74] | – | – | –
13 | – | – | – | – | > 10000 | CSCC[C@H](NC(=O)c1cccnc1)C(=O)N[C@@H](CCc1ccccc1)C(=O)N[C@@H]1CN(c2ccc(F)cc2)C1=O [Compound 75] | – | – | –
14 | 2370 ± 230 | 990 ± 170 | > 10000 | > 10000 | 282 ± 33.6 | CC(C)(C)CNC(=O)C[C@H](NC(=O)c1cccnc1)C(=O)N[C@@H](CCc1ccccc1)C(=O)N[C@@H]1CN(c2ccc(C(F)(F)F)cc2)C1=O [Compound 79, (S)‐N ^4‐Neopentyl‐2‐(nicotinamido)‐N ^1‐[(S)‐1‐oxo‐1‐{[(R)‐2‐oxo‐1‐[4‐(trifluoromethyl)phenyl]azetidin‐3‐yl]amino}‐4‐phenylbutan‐2‐yl]succinamide] | 2750 ± 460 | 3440 ± 440 | –
